According to US9365522B2, “Pyrazole amide derivative” (AMGEN INC., priority 2015, dated 2016):

Target: T1, ligand binding domain of human ROR gamma (Homo sapiens, UniProt P51449)
T1 construct: NM_001001523; expressed in transfected cells; host or cells: HEK293T
T1 sequence (P51449 247-497 isoform P51449-2): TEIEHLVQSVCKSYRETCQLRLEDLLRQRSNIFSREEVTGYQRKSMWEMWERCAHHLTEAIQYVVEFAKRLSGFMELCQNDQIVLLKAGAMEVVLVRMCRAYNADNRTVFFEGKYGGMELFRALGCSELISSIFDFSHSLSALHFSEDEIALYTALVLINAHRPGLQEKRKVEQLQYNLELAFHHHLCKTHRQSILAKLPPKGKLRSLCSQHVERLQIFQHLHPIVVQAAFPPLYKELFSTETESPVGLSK
Assay: ROR gamma reporter gene assay (GAL4-RORγ LBD luciferase, Dual-Glo)
Assay type: cell-based
Settings: HEK293T cells transfected with pM-ROR gamma, 8 concentrations 3.5 nM to 10.5 μM, 24 h incubation; read-out: result (pIC50, inhibition of RORγ transcriptional activity) (converted)
In short: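 First, HEK293T cells are transfected with the GAL4–RORγ LBD construct, a 5×UAS luciferase reporter and a constitutive renilla control. Next, test compounds are added over eight concentrations (3.5 nM to 10.5 μM). After 24 h at 37 °C, Dual-Glo luminescence is measured and pIC50 fitted.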

First: CC(C)(C)C#CCN(CC(=O)c1c(Cl)cc(F)cc1Cl)C(=O)c1cnn([C@H]2CC[C@](C)(C(=O)O)CC2)c1C(F)(F)F [Example 218, trans-4-(4-((2-(2,6-dichloro-4-fluorophenyl)-2-oxoethyl)-(4,4-dimethylpent-2-ynyl)carbamoyl)-5-(trifluoromethyl)pyrazol-1-yl)-1-methylcyclohexane-1-carboxylic acid]
Second: CC(C)(C)CN(CC(=O)c1c(Cl)cc(Cl)cc1Cl)C(=O)c1cnn([C@H]2CC[C@](C)(C(=O)O)CC2)c1C(F)(F)F [Example 221, trans-4-(4-(2,2-dimethylpropyl-(2-oxo-2-(2,4,6-trichlorophenyl)ethyl)carbamoyl)-5-(trifluoromethyl)pyrazol-1-yl)-1-methylcyclohexane-1-carboxylic acid]
The IC50 of the first is 110-fold higher: 339000 pM for the first, 2950 pM for the second.

Going from `CC1(C)[C@@H]2C[C@H](N(CC(=O)c3c(Cl)cc(Cl)cc3Cl)C(=O)c3cnn([C@H]4CC[C@](C)(C(=O)O)CC4)c3C(F)(F)F)C[C@@H]21` [Example 219, trans-4-(4-(((1R,3r,5S)-6,6-dimethyl-3-bicyclo[3.1.0]hexanyl)-(2-oxo-2-(2,4,6-trichlorophenyl)ethyl)carbamoyl)-5-(trifluoromethyl)pyrazol-1-yl)-1-methylcyclohexane-1-carboxylic acid] to `COc1cccc(Cl)c1C(=O)CN(C(=O)c1cnn([C@H]2CC[C@](C)(C(=O)O)CC2)c1C(F)(F)F)[C@H]1C[C@@H]2[C@H](C1)C2(C)C` [Example 232, trans-4-(4-((2-(2-chloro-6-methoxyphenyl)-2-oxoethyl)-((1R,3r,5S)-6,6-dimethyl-3-bicyclo(3.1.0)hexanyl)carbamoyl)-5-(trifluoromethyl)pyrazol-1-yl)-1-methylcyclohexane-1-carboxylic acid], the IC50 rises from 4900 pM to 17000 pM (3.5-fold).

First: CC1(C)CCC(CN(CC(=O)c2c(Cl)cc(F)cc2Cl)C(=O)c2cnn([C@H]3CC[C@](C)(C(=O)O)CC3)c2C(F)(F)F)CC1 [Example 220, trans-4-(4-((2-(2,6-dichloro-4-fluorophenyl)-2-oxoethyl)-((4,4-dimethylcyclohexyl)methyl)carbamoyl)-5-(trifluoromethyl)pyrazol-1-yl)-1-methylcyclohexane-1-carboxylic acid]
Second: Cc1cc(Cl)c(C(=O)CN(C(=O)c2cnn([C@H]3CC[C@](C)(C(=O)O)CC3)c2C(F)(F)F)C2CCC(C)(C)CC2)c(Cl)c1 [Example 227, trans-4-(4-((2-(2,6-dichloro-4-methylphenyl)-2-oxoethyl)-(4,4-dimethylcyclohexyl)carbamoyl)-5-(trifluoromethyl)pyrazol-1-yl)-1-methylcyclohexane-1-carboxylic acid]
The IC50 of the first is 26-fold higher: 105000 pM for the first, 3980 pM for the second.

Compared with `CC1(C)[C@@H]2C[C@H](N(CC(=O)c3c(Cl)cccc3C(F)(F)F)C(=O)c3cnn([C@H]4CC[C@](C)(C(=O)O)CC4)c3C(F)(F)F)C[C@@H]21` [Example 222, trans-4-(4-((2-(2-chloro-6-(trifluoromethyl)phenyl)-2-oxoethyl)-((1R,3r,5S)-6,6-dimethyl-3-bicyclo[3.1.0]hexanyl)carbamoyl)-5-(trifluoromethyl)pyrazol-1-yl)-1-methylcyclohexane-1-carboxylic acid], `CC1(C)CCC(N(CC(=O)c2c(Cl)cncc2Cl)C(=O)c2cnn([C@H]3CC[C@](C)(C(=O)O)CC3)c2C(F)(F)F)CC1` [Example 229, trans-4-(4-((2-(3,5-dichloropyridin-4-yl)-2-oxoethyl)-(4,4-dimethylcyclohexyl)carbamoyl)-5-(trifluoromethyl)pyrazol-1-yl)-1-methylcyclohexane-1-carboxylic acid] is 3.1-fold higher in IC50: 4170 pM for the first, 12900 pM for the second.

Compared with `CC1(C)CC[C@@H](N(CC(=O)c2c(Cl)cncc2Cl)C(=O)c2cnn([C@H]3CC[C@H](C(=O)O)CC3)c2C(F)(F)F)C1` [Example 223, trans-4-(4-((2-(3,5-dichloropyridin-4-yl)-2-oxoethyl)-((1R)-3,3-dimethylcyclopentyl)carbamoyl)-5-(trifluoromethyl)pyrazol-1-yl)cyclohexane-1-carboxylic acid], `O=C(CN(Cc1ccc(F)cc1)C(=O)c1cnn([C@H]2CC[C@H](C(=O)O)CC2)c1CC(F)(F)F)c1c(Cl)cncc1Cl` [Example 228, trans-4-(4-((2-(3,5-dichloropyridin-4-yl)-2-oxoethyl)-((4-fluorophenyl)methyl)carbamoyl)-5-(2,2,2-trifluoroethyl)pyrazol-1-yl)cyclohexane-1-carboxylic acid] is 3.9-fold higher in IC50: 50100 pM for the first, 195000 pM for the second.

`C[C@]1(C(=O)O)CC[C@H](n2ncc(C(=O)N(CC(=O)c3c(Cl)cc(F)cc3Cl)CC3(F)CCCC3)c2C(F)(F)F)CC1` [Example 224, trans-4-(4-((2-(2,6-dichloro-4-fluorophenyl)-2-oxoethyl)-((1-fluorocyclopentyl)methyl)carbamoyl)-5-(trifluoromethyl)pyrazol-1-yl)-1-methylcyclohexane-1-carboxylic acid] and `C[C@]1(C(=O)O)CC[C@H](n2ncc(C(=O)N(CC(=O)c3c(Cl)cc(Cl)cc3Cl)CC3(F)CCCC3)c2C(F)(F)F)CC1` [Example 225, trans-4-(4-((1-fluorocyclopentyl)methyl-(2-oxo-2-(2,4,6-trichlorophenyl)ethyl)carbamoyl)-5-(trifluoromethyl)pyrazol-1-yl)-1-methylcyclohexane-1-carboxylic acid] are within 1.5-fold of each other in IC50: 2690 pM for the first, 2950 pM for the second.

First: Cc1cc(Cl)c(C(=O)CN(CC23CCC(C)(CC2)O3)C(=O)c2cnn([C@H]3CC[C@](C)(C(=O)O)CC3)c2C(F)(F)F)c(Cl)c1 [Example 226, trans-4-(4-((2-(2,6-dichloro-4-methylphenyl)-2-oxoethyl)-((1-methyl-7-oxabicyclo[2.2.1]heptan-4-yl)methyl)carbamoyl)-5-(trifluoromethyl)pyrazol-1-yl)-1-methylcyclohexane-1-carboxylic acid]
Second: CC1(C)CCC(N(CC(=O)c2c(Cl)cc(F)cc2Cl)C(=O)c2cnn(C34CCC(C(=O)O)(CC3)CC4)c2C(F)(F)F)CC1 [Example 230, 4-(4-((2-(2,6-dichloro-4-fluorophenyl)-2-oxoethyl)-(4,4-dimethylcyclohexyl)carbamoyl)-5-(trifluoromethyl)pyrazol-1-yl)bicyclo[2.2.2]octane-1-carboxylic acid]
The IC50 of the first is 1.9-fold lower: 3390 pM for the first, 6610 pM for the second.

`CC1(C)CCC(N(CC(=O)c2c(Cl)cc(Cl)cc2Cl)C(=O)c2cnn(C34CCC(C(=O)O)(CC3)CC4)c2C(F)(F)F)CC1` [Example 231, 4-(4-((4,4-dimethylcyclohexyl)-(2-oxo-2-(2,4,6-trichlorophenyl)ethyl)carbamoyl)-5-(trifluoromethyl)pyrazol-1-yl)bicyclo[2.2.2]octane-1-carboxylic acid] and `CC(C)(C)CN(CC(=O)c1c(Cl)cncc1Cl)C(=O)c1cnn(C23CCC(C(=O)O)(CC2)CC3)c1C(F)(F)F` [Example 233, 4-(4-((2-(3,5-dichloropyridin-4-yl)-2-oxoethyl)-(2,2-dimethylpropyl)carbamoyl)-5-(trifluoromethyl)pyrazol-1-yl)bicyclo[2.2.2]octane-1-carboxylic acid] are within 1.5-fold of each other in IC50: 10700 pM for the first, 15800 pM for the second.
